These results are taken from ChEMBL document CHEMBL1156835, “Discovery of new SCH 39166 analogs as potent and selective dopamine D1 receptor antagonists” (Bioorg Med Chem Lett, 2010).

For one series, the target named is D(2) dopamine receptor (Homo sapiens, UniProt P14416). Kind of series: Binding affinity to dopamine D2 receptor.
The next series concerns the target D(1A) dopamine receptor (Homo sapiens, UniProt P21728). Put plainly: Binding affinity to dopamine D1 receptor.
For the next series, the target named is D(1B) dopamine receptor (Homo sapiens, UniProt P21918). Put plainly: Binding affinity to dopamine D5 receptor.
Sequence of D(1B) dopamine receptor (P21918 whole entry): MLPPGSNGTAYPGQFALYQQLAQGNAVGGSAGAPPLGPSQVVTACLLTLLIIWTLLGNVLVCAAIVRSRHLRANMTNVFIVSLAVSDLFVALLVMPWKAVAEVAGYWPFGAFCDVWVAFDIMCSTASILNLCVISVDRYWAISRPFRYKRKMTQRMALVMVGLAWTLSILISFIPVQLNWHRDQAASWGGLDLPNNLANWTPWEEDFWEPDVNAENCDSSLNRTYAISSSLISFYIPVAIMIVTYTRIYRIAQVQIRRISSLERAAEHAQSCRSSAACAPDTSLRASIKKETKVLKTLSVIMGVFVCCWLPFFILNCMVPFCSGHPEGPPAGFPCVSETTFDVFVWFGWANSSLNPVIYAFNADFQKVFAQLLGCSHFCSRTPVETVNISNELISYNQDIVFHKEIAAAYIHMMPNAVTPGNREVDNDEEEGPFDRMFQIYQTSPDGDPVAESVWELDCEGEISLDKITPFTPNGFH
For the next series, the target named is T1, D(4) dopamine receptor (Homo sapiens, UniProt P21917).
T1 sequence (P21917 whole entry): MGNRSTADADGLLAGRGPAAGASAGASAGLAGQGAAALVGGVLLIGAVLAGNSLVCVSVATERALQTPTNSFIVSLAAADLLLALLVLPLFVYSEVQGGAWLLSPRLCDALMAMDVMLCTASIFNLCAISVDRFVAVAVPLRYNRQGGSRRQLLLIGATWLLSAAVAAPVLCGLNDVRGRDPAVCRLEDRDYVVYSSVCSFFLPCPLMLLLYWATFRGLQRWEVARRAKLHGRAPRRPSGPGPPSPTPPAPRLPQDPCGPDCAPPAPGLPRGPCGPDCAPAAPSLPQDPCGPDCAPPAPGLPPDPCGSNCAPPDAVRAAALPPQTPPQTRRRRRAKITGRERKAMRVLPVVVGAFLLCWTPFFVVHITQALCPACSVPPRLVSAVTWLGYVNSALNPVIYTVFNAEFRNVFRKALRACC
Put plainly: Binding affinity to dopamine D4 receptor.

Series [1] in a line: AUC in rat. The format is ADME, organism-based. Conditions: plasma.
Series [2] is described as follows: Oral bioavailability in rat. Particulars: in vivo. In kind it is ADME, organism-based.
The nature of series [3]: Selectivity ratio, Ki for dopamine D1 receptor to Ki for dopamine D2 receptor.

Sequence of D(2) dopamine receptor (P14416 whole entry): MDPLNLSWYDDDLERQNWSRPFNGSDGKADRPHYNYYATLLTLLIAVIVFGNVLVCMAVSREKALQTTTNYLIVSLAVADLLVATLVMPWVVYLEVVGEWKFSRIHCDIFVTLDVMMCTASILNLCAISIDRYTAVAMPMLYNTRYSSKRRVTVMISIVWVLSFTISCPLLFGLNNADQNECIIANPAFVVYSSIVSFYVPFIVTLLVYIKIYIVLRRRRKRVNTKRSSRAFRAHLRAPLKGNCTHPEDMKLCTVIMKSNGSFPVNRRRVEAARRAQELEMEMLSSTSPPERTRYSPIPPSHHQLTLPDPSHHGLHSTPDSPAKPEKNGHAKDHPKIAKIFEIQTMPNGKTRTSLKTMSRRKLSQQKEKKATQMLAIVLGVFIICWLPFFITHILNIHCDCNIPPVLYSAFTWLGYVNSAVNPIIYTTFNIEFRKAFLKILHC
Sequence of D(1A) dopamine receptor (P21728 whole entry): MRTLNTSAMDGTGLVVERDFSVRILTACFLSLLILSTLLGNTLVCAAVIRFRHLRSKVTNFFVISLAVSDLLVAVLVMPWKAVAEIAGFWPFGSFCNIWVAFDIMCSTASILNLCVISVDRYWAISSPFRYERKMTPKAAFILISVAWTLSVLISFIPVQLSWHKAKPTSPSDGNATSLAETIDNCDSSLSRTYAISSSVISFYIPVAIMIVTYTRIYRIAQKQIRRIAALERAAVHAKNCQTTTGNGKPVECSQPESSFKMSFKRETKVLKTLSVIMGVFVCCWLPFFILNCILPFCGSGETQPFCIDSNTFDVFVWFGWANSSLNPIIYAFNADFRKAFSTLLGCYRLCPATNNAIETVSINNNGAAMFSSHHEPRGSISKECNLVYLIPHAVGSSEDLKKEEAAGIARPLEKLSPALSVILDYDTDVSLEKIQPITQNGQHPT

`CN1CCc2cc(Cl)c(O)cc2[C@H]2c3cccc(NS(C)(=O)=O)c3CC[C@@H]21`: the Ki on D(2) dopamine receptor came out at 1000 nM; on D(1A) dopamine receptor, 4.7 nM.
Consider `CN1CCc2cc(Cl)c(O)cc2[C@H]2c3ccc(N)cc3CC[C@@H]21`, for which the Ki is 5400 nM at D(2) dopamine receptor, 7 nM at D(1A) dopamine receptor, 8.3 nM at D(1B) dopamine receptor and greater than 10000 nM on D(4) dopamine receptor.
On to `CCNC(=O)Nc1cccc2c1CC[C@H]1[C@H]2c2cc(O)c(Cl)cc2CCN1C`, for which the figures for the Ki on D(2) dopamine receptor and on D(1A) dopamine receptor were 900 nM and 2.4 nM, respectively.
On to `CCNC(=O)Nc1ccc2c(c1)CC[C@H]1[C@H]2c2cc(O)c(Cl)cc2CCN1C`, for which the Ki at D(2) dopamine receptor was 6000 nM; at D(1A) dopamine receptor it was 1.5 nM; at D(1B) dopamine receptor it was 7.1 nM; at D(4) dopamine receptor, greater than 10000 nM.
Take `CN1CCc2cc(Cl)c(O)cc2[C@H]2c3ccc(NC(=O)C4CC4)cc3CC[C@@H]21`: the Ki at D(2) dopamine receptor is greater than 10000 nM; on D(1A) dopamine receptor, 2.3 nM.
As for `CCS(=O)(=O)Nc1cccc2c1CC[C@H]1[C@H]2c2cc(O)c(Cl)cc2CCN1C`, the inhibitory constant (Ki) at D(2) dopamine receptor was found to be 618 nM; on D(1A) dopamine receptor, 5.8 nM.
With `CC(=O)N(Cc1ccc([C@H]2CN(C)CCc3cc(Cl)c(O)cc32)cc1)C1CCC1`, the Ki is 159 nM at D(2) dopamine receptor, 0.2 nM at D(1A) dopamine receptor, 13 nM at D(1B) dopamine receptor and greater than 10000 nM on D(4) dopamine receptor.
`CCC(=O)Nc1cccc2c1CC[C@H]1[C@H]2c2cc(O)c(Cl)cc2CCN1C`: the Ki at D(2) dopamine receptor turned out to be 500 nM; at D(1A) dopamine receptor, 2.3 nM.
For `CN1CCc2cc(Cl)c(O)cc2[C@H]2c3cccc(N)c3CC[C@@H]21`, the Ki on D(2) dopamine receptor is 2100 nM; at D(1A) dopamine receptor, 2.8 nM; at D(1B) dopamine receptor it was 7 nM; at D(4) dopamine receptor it was greater than 10000 nM.
With `CN1CCc2cc(Cl)c(O)cc2[C@@H](c2ccc(CN(C)S(C)(=O)=O)cc2)C1`, the Ki on D(2) dopamine receptor was 6000 nM; on D(1A) dopamine receptor, 0.5 nM.
Consider `CN1CCc2cc(Cl)c(O)cc2[C@H]2c3cccc(NC(=O)Nc4c(Cl)cccc4Cl)c3CC[C@@H]21`, for which the values for the Ki at D(2) dopamine receptor and at D(1A) dopamine receptor were 566 nM and 7.1 nM, respectively.
For `CN1CCc2cc(Cl)c(O)cc2[C@H]2c3ccc(NC(=O)Nc4c(Cl)cccc4Cl)cc3CC[C@@H]21`, the Ki on D(2) dopamine receptor was found to be 1090 nM; at D(1A) dopamine receptor, 0.7 nM.
As for `CN1CCc2cc(Cl)c(O)cc2[C@H]2c3ccc(NS(C)(=O)=O)cc3CC[C@@H]21`, the inhibition constant Ki at D(2) dopamine receptor was 3000 nM; on D(1A) dopamine receptor it was 0.5 nM; at D(1B) dopamine receptor, 5.8 nM; on D(4) dopamine receptor, greater than 10000 nM. The AUC in series [1] is 2490 ng·h/mL. This compound showed a bioavailability in series [2] of 29%.
As for `CCOC(=O)Nc1ccc2c(c1)CC[C@H]1[C@H]2c2cc(O)c(Cl)cc2CCN1C`, the Ki on D(2) dopamine receptor was 3900 nM; at D(1A) dopamine receptor, 1.4 nM; on D(1B) dopamine receptor it was 3.3 nM; at D(4) dopamine receptor, greater than 10000 nM.
Regarding `CN1CCc2cc(Cl)c(O)cc2[C@H]2c3cccc(NC(=O)C4CC4)c3CC[C@@H]21`, the values for the Ki at D(2) dopamine receptor and at D(1A) dopamine receptor were 2140 nM and 5.7 nM, respectively.
In the case of `CN1CCc2cc(Cl)c(O)cc2[C@H]2c3cc(CN4CCN(c5ccccn5)CC4)ccc3CC[C@@H]21`, the Ki worked out at 1.3 nM on D(2) dopamine receptor and 152 nM at D(1A) dopamine receptor. In addition, the Ratio Ki in series [3] came out at 117.
Consider `CN1CCc2cc(Cl)c(O)cc2[C@H]2c3cc(CN4CCCCC4)ccc3CC[C@@H]21`, for which the Ki on D(2) dopamine receptor was 26 nM; at D(1A) dopamine receptor it was 225 nM. Moreover, the Ratio Ki in series [3] is 8.7.
With `CN1CCc2cc(Cl)c(O)cc2[C@@H](c2ccc(CNc3ccccc3)cc2)C1`, the figures for the Ki on D(2) dopamine receptor and on D(1A) dopamine receptor were 2000 nM and 2 nM, respectively.
Consider `CCS(=O)(=O)Nc1ccc2c(c1)CC[C@H]1[C@H]2c2cc(O)c(Cl)cc2CCN1C`, for which the Ki at D(2) dopamine receptor was 3300 nM; on D(1A) dopamine receptor, 0.7 nM; on D(1B) dopamine receptor, 5.6 nM; at D(4) dopamine receptor, greater than 10000 nM.
Consider `CN1CCc2cc(Cl)c(O)cc2[C@@H](c2ccc(CN(Cc3ccccc3)c3ccc(F)cc3F)cc2)C1`, for which the figures for the Ki on D(2) dopamine receptor and on D(1A) dopamine receptor were 552 nM and 0.7 nM, respectively.
For `CN1CCc2cc(Cl)c(O)cc2[C@@H](c2ccc(CN(C)S(=O)(=O)c3ccccc3)cc2)C1`, the Ki turned out to be 331 nM at D(2) dopamine receptor, 0.6 nM at D(1A) dopamine receptor, 1.2 nM at D(1B) dopamine receptor and 4330 nM on D(4) dopamine receptor.
With `CN1CCc2cc(Cl)c(O)cc2[C@@H](c2ccc(CN(C3CCC3)S(C)(=O)=O)cc2)C1`, the Ki at D(2) dopamine receptor was 2000 nM; on D(1A) dopamine receptor, 0.5 nM; at D(1B) dopamine receptor, 5.9 nM; at D(4) dopamine receptor, greater than 10000 nM.
For `CN1CCc2cc(Cl)c(O)cc2[C@H]2c3ccccc3CC[C@@H]21` [ECOPIPAM], the AUC in series [1] was found to be 156 ng·h/mL. In series [2], this compound came in with a bioavailability of 0.6%.
Take `CN1CCc2cc(Cl)c(O)cc2[C@@H](c2ccc(CNC3CCC3)cc2)C1`: the figures for the Ki at D(2) dopamine receptor, on D(1B) dopamine receptor and at D(4) dopamine receptor were 2000 nM, 3.9 nM and greater than 10000 nM, respectively.

As usually defined, the Ki is a measure of affinity in units of concentration, obtained from inhibition or displacement. Low readings indicate tighter binding, high ones weaker binding. A word on the AUC: it is concentration integrated over time. A low value points to low exposure. As usually defined, the bioavailability is dose-corrected exposure relative to a reference, in per cent.
